# Measured values as given in patent US20240300980A1, “HETEROCYCLIC COMPOUNDS AS KRAS INHIBITOR, AND PREPARATION THEREFOR AND USE THEREOF IN TREATMENT” (SHANGHAI KECHOW PHARMA, INC., priority 2021, published 2024).
# Test system: AGS cells (KRAS^G12D)
# Assay: Detection of cell proliferation in vitro by MTT/MTS method (cell activity experiment)
# Assay type: cell-based
# Details: AGS cells; MTT/MTS; 3 days of drug treatment; read-out: AGS IC50
# In short: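 KRAS G12D AGS cells seeded at 1000 per well, compound added 24 h later, 0.5% final DMSO. Viability read after 3 days of treatment by MTT (solubilised in DMSO) or MTS, 4 h, absorbance 490 nm. IC50 from dose–response curves versus DMSO control.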
row,Structure (SMILES),IC50 [nM]
1,"CCC1CCc2cc(O)cc(-c3ccc4c(N5C[C@H]6CC[C@@H](C5)N6)nc(OC[C@@]56CCCN5C[C@H](F)C6)nc4c3F)c21 (single isomer, unassigned) [Example 284]",2200
2,"C#Cc1cccc2cc(O)cc(-c3ccc4c(N5C[C@H]6CC[C@@H](C5)[C@@H]6F)nc(OC[C@@]56CCCN5C[C@H](F)C6)nc4c3F)c12 [Example 125, 5-ethynyl-4-(8-fluoro-4-((1R,5S,8R)-8-fluoro-3-azabicyclo [3.2.1]octan-3-yl)-2-(((2R,7aS)-2-fluorotetrahydro-1H-pyrrolizin-7a(5H)-yl)methoxy)quinazolin-7-yl)naphthalen-2-ol]",> 2500

# Same assay, conditions: Homo sapiens, AGS, 72 h, AGS cells; MTT/MTS; 3 days of drug treatment; read-out: AGS IC50
row,Structure (SMILES),IC50 [nM]
1,"CC1CCc2cc(O)cc(-c3ncc4c(N5C[C@H]6CC[C@@H](C5)N6)nc(OC[C@@]56CCCN5C[C@H](F)C6)nc4c3F)c21 (stereo partly drawn) [Example 223, 7-(4-((1R,5S)-3,8-diazabicyclo[3.2.1]octan-3-yl)-8-fluoro-2-(((2R,7aS)-2-fluorotetrahydro-1H-pyrrolizin-7a(5H)-yl)methoxy)pyrido[4,3-d]pyrimidin-7-yl)-1-methyl-2,3-dihydro-1H-inden-5-ol]",14
2,"CCC1CCc2cc(O)cc(-c3c(Cl)cc4c(N5C[C@H]6CC[C@@H](C5)N6)nc(OC[C@@]56CCCN5C[C@H](F)C6)nc4c3F)c21 (stereo partly drawn) [Example 302, 7-(4-((1R,5S)-3,8-diazabicyclo[3.2.1]octan-3-yl)-6-chloro-8-fluoro-2-(((2R,7aS)-2-fluorotetrahydro-1H-pyrrolizin-7a(5H)-yl)methoxy)quinazolin-7-yl)-1-ethyl-2,3-dihydro-1H-inden-5-ol]",22
3,"Oc1cc2c(c(-c3ncc4c(N5C[C@H]6CC[C@@H](C5)N6)nc(OC[C@@]56CCCN5C[C@H](F)C6)nc4c3F)c1)C1(CC2)CC1 [Example 255, 7′-(4-((1R,5S)-3,8-diazabicyclo[3.2.1]octan-3-yl)-8-fluoro-2-(((2R,7aS)-2-fluorotetrahydro-1H-pyrrolizin-7a(5H)-yl)methoxy)pyrido[4,3-d]pyrimidin-7-yl)-2′,3′-dihydrospiro[cyclopropane-1,1′-inden]-5′-ol]",157
4,"C#Cc1c(F)ccc2cc(O)cc(-c3ncc4c(N(CCNC)C5CC5)nc(OC[C@@]56CCCN5C[C@H](F)C6)nc4c3F)c12 [Example 219, 4-(4-(cyclopropyl(2-(methyl-amino)ethyl)amino)-8-fluoro-2-(((2R,7aS)-2-fluorotetrahydro-1H-pyrrolizin-7a(5H)-yl)methoxy)pyrido[4,3-d]pyrimidin-7-yl)-5-ethynyl-6-fluoronaphthalen-2-ol]",> 2500
5,"CC(C)C1CCc2cc(O)cc(-c3ncc4c(N5C[C@H]6CC[C@@H](C5)N6)nc(OC[C@@]56CCCN5C[C@H](F)C6)nc4c3F)c21 (stereo partly drawn) [Example 268, 7-(4-((1R,5S)-3,8-diazabicyclo[3.2.1]octan-3-yl)-8-fluoro-2-(((2R,7aS)-2-fluorotetrahydro-1H-pyrrolizin-7a(5H)-yl)methoxy)pyrido[4,3-d]pyrimidin-7-yl)-1-isopropyl-2,3-dihydro-1H-inden-5-ol]",4000
6,"CCc1c(F)ccc2cc(O)cc(-c3ccc4c(N5C[C@H]6CC[C@@H](C5)N6)c(C#N)c(OC[C@@]56CCCN5C[C@H](F)C6)nc4c3F)c12 [Example 178, 4-((1R,5S)-3,8-diazabicyclo[3.2.1]octan-3-yl)-7-(8-ethyl-7-fluoro-3-hydroxynaphthalen-1-yl)-8-fluoro-2-(((2R,7aS)-2-fluorotetrahydro-1H-pyrrolizin-7a(5H)-yl)methoxy)quinoline-3-carbonitrile]",535
7,"Oc1cc2c(c(-c3ncc4c(N5C[C@H]6CC[C@@H](C5)N6)nc(OC[C@@]56CCCN5C[C@H](F)C6)nc4c3F)c1)C(C(F)(F)F)CCC2 (stereo partly drawn) [Example 260, 4-(4-((1R,5S)-3,8-diazabicyclo[3.2.1]octan-3-yl)-8-fluoro-2-(((2R,7aS)-2-fluorotetrahydro-1H-pyrrolizin-7a(5H)-yl)methoxy)pyrido[4,3-d]pyrimidin-7-yl)-5-(trifluoromethyl)-5,6,7,8-tetrahydronaphthalen-2-ol]",417
8,"C#Cc1c(F)ccc2cc(O)cc(-c3ccc4c(N5CCC6(CCCS6)CC5)nc(OC[C@@]56CCCN5C[C@H](F)C6)nc4c3F)c12 [Example 109, 5-ethynyl-6-fluoro-4-(8-fluoro-2-(((2R,7aS)-2-fluorotetrahydro-1H-pyrrolizin-7a(5H)-yl)methoxy)-4-(1-thia-8-azaspiro[4.5]decan-8-yl)quinazolin-7-yl)naphthalen-2-ol]",> 2500
9,"C#Cc1c(F)ccc2cc(O)cc(-c3ccc4c(N5CC6CCCC(C5)N6)nc(OC[C@@]56CCCN5C[C@H](F)C6)nc4c3F)c12 [Example 105, 4-(4-(3,9-diazabicyclo [3.3.1]nonan-3-yl)-8-fluoro-2-(((2R,7aS)-2-fluorotetrahydro-1H-pyrrolizin-7a(5H)-yl)methoxy)quinazolin-7-yl)-5-ethynyl-6-fluoronaphthalen-2-ol]",80
10,"Oc1cc2c(c(-c3ccc4c(N5C[C@H]6CC[C@@H](C5)N6)nc(OC[C@@]56CCCN5C[C@H](F)C6)nc4c3F)c1)CCCC2 [Example 420, 4-(4-((1R,5S)-3,8-diazabicyclo[3.2.1]octan-3-yl)-8-fluoro-2-(((2R,7aS)-2-fluorotetrahydro-1H-pyrrolizin-7a(5H)-yl)methoxy)quinazolin-7-yl)-5,6,7,8-tetrahydronaphthalen-2-ol]",60
11,"C#Cc1c(F)ccc2cc(O)cc(-c3ncc4c(N5C[C@H]6CC[C@@H](C5)N6)nc(OC[C@@]56CCCN5C[C@H](F)C6)nc4c3OCC(F)(F)F)c12 [Example 333, 4-(4-((1R,5S)-3,8-diazabicyclo[3.2.1]octan-3-yl)-2-(((2R,7aS)-2-fluorotetrahydro-1H-pyrrolizin-7a(5H)-yl)methoxy)-8-(2,2,2-trifluoroethoxy)pyrido[4,3-d]pyrimidin-7-yl)-5-ethynyl-6-fluoronaphthalen-2-ol]",455
12,"C#Cc1cccc2cc(O)cc(-c3ncc4c(N5C[C@H]6CC[C@@H](C5)N6)c(C#N)c(OC[C@@]56CCCN5C[C@H](F)C6)nc4c3F)c12 [Example 189, 4-((1R,5S)-3,8-diazabicyclo[3.2.1]octan-3-yl)-7-(8-ethynyl-3-hydroxynaphthalen-1-yl)-8-fluoro-2-(((2R,7aS)-2-fluorotetrahydro-1H-pyrrolizin-7a(5H)-yl)methoxy)-1,6-naphthyridine-3-carbonitrile]",152
13,"C#Cc1c(F)ccc2cc(O)cc(-c3ncc4c(N5CC6CCC5CN6)nc(OC[C@@]56CCCN5C[C@H](F)C6)nc4c3F)c12 (stereo partly drawn) [Example 46, 4-(4-(2,5-diazabicyclo [2.2.2]octan-2-yl)-8-fluoro-2-(((2R,7aS)-2-fluorotetrahydro-1H-pyrrolizin-7a(5H)-yl)methoxy)pyrido[4,3-d]pyrimidin-7-yl)-5-ethynyl-6-fluoronaphthalen-2-ol]",13
14,"C#Cc1c(F)ccc2cc(O)cc(C3=C(F)c4nc(OC[C@@]56CCCN5C[C@H](F)C6)nc(N5C[C@H]6CC[C@@H](C5)N6)c4C4=NCCN43)c12 [Example 402, 4-(10-((1R,5S)-3,8-diazabicyclo[3.2.1]octan-3-yl)-6-fluoro-8-(((2R,7aS)-2-fluorotetrahydro-1H-pyrrolizin-7a(5H)-yl)methoxy)-2,3-dihydroimidazo[1′,2′:1,2]pyrido[4,3-d]pyrimidin-5-yl)-5-ethynyl-6-fluoronaphthalen-2-ol]",56
15,"C#Cc1cccc2cc(O)cc(-c3ccc4c(N5C[C@H]6CC[C@@H](C5)O6)nc(OC[C@@]56CCCN5C[C@H](F)C6)nc4c3F)c12 [Example 157, 4-(4-((1R,5S)-8-oxa-3-azabicyclo[3.2.1]octan-3-yl)-8-fluoro-2-(((2R,7aS)-2-fluorotetrahydro-1H-pyrrolizin-7a(5H)-yl)methoxy)quinazolin-7-yl)-5-ethynylnaphthalen-2-ol]",330
16,"O=C1CCCc2cc(O)cc(-c3ccc4c(N5C[C@H]6CC[C@@H](C5)N6)nc(OC[C@@]56CCCN5C[C@H](F)C6)nc4c3F)c21 [Example 296, 8-(4-((1R,5S)-3,8-diazabicyclo[3.2.1]octan-3-yl)-8-fluoro-2-(((2R,7aS)-2-fluorotetrahydro-1H-pyrrolizin-7a(5H)-yl)methoxy)quinazolin-7-yl)-6-hydroxy-3,4-dihydronaphthalen-1(2H)-one]",> 2500
17,"C#Cc1c(F)ccc2cc(O)cc(-c3ncc4c(N5CC6CCC(C5)C6O)nc(OC[C@@]56CCCN5C[C@H](F)C6)nc4c3F)c12 (stereo partly drawn) [Example 60, (1R,5S,8R)-3-(7-(8-ethynyl-7-fluoro-3-hydroxynaphthalen-1-yl)-8-fluoro-2-(((2R,7aS)-2-fluorotetrahydro-1H-pyrrolizin-7a(5H)-yl)methoxy)pyrido[4,3-d]pyrimidin-4-yl)-3-azabicyclo[3.2.1]octan-8-ol]",> 2500
18,"Oc1cc(-c2ncc3c(N4C[C@H]5CC[C@@H](C4)N5)nc(OCC4(CN5CCCC5)CC4)nc3c2F)c2c(F)c(F)ccc2c1 [Example 5, 4-(4-((1R,5S)-3,8-diazabicyclo[3.2.1]octan-3-yl)-8-fluoro-2-((1-(pyrrolidin-1-ylmethyl)cyclopropyl)methoxy)pyrido[4,3-d]pyrimidin-7-yl)-5,6-difluoronaphthalen-2-ol]",3.8
19,"C#Cc1cccc2cc(O)cc(-c3ncc4c(C5C[C@H]6CC[C@@H](C5)N6)nc(OC[C@@]56CCCN5C[C@H](F)C6)nc4c3F)c12 (stereo partly drawn) [Example 83, 4-(4-((1R,5S)-8-azabicyclo[3.2.1]octan-3-yl)-8-fluoro-2-(((2R,7aS)-2-fluorotetrahydro-1H-pyrrolizin-7a(5H)-yl)methoxy)pyrido [4,3-d]pyrimidin-7-yl)-5-ethynylnaphthalen-2-ol]",> 2500
20,"C#Cc1c(F)ccc2cc(O)cc(-c3ncc4c(N5CCC6(CCCN6)CC5)nc(OC[C@@]56CCCN5C[C@H](F)C6)nc4c3F)c12 [Example 47, 5-ethynyl-6-fluoro-4-(8-fluoro-2-(((2R,7aS)-2-fluorotetrahydro-1H-pyrrolizin-7a(5H)-yl)methoxy)-4-(1,8-diazaspiro[4.5]decan-8-yl)pyrido[4,3-d]pyrimidin-7-yl) naphthalen-2-ol]",4540
